From PubChem BioAssay AID330 (DTP/NCI, 2004)
Several values for one entry are separate records, joined by “and”; a condition that tells them apart may be missing. Identical values can stand only once. Inconclusive results and toxic doses are left out. The calls were made as follows: active = survival T/C of 150% or more; inactive = T/C below 125% in these data.

Test system: P388 leukemia ip, CD2F1 mice, survival T/C
Assay: NCI In Vivo Anticancer Drug Screen. Data for tumor model P388 Leukemia (intraperitoneal) in CD2F1 (CDF1) mice
Settings: endpoint: median survival time, higher = longer survival
In short: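 Mice carrying the transplanted tumor received test compound or vehicle. Survival was recorded in each group, and the value is the treated-group measurement divided by that of the vehicle-treated control group.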

[1] = dose: 50.0 mg/kg/injection, schedule: Q01DX005 (ip), vehicle: saline with Tween-80
[2] = dose: 100.0 mg/kg/injection, schedule: Q01DX005 (ip), vehicle: saline with Tween-80
[3] = dose: 200.0 mg/kg/injection, schedule: Q01DX005 (ip), vehicle: saline with Tween-80
[4] = dose: 25.0 mg/kg/injection, schedule: Q01DX009 (ip), vehicle: saline
[5] = dose: 50.0 mg/kg/injection, schedule: Q01DX009 (ip), vehicle: suspension in saline
[6] = dose: 60.0 mg/kg/injection, schedule: Q01DX005 (ip), vehicle: Klucel (hydroxypropylcellulose) (HPC)
[7] = dose: 120.0 mg/kg/injection, schedule: Q01DX005 (ip), vehicle: Klucel (hydroxypropylcellulose) (HPC)
[8] = dose: 240.0 mg/kg/injection, schedule: Q01DX005 (ip), vehicle: Klucel (hydroxypropylcellulose) (HPC)

Measured: T/C

CC(C(=O)O)S(=O)(=O)O (configuration not stated)
inactive: dose: 20.0 mg/kg/injection, schedule: Q01DX009 (ip), vehicle: saline with Tween-80 100 % of control | dose: 40.0 mg/kg/injection, schedule: Q01DX009 (ip), vehicle: saline with Tween-80 96 % of control

O=Nc1c[nH]c(=O)[nH]c1=O
inactive: dose: 50.0 mg/kg/injection, schedule: Q01DX009 (ip), vehicle: saline 97 % of control | dose: 100.0 mg/kg/injection, schedule: Q01DX009 (ip), vehicle: saline 98 % of control | dose: 200.0 mg/kg/injection, schedule: Q01DX009 (ip), vehicle: saline 100 % of control

c1ccc2c(c1)C1OC2c2ccccc21
inactive: dose: 50.0 mg/kg/injection, schedule: Q01DX005 (ip), vehicle: Klucel (hydroxypropylcellulose) (HPC) 99 % of control | dose: 100.0 mg/kg/injection, schedule: Q01DX005 (ip), vehicle: Klucel (hydroxypropylcellulose) (HPC) 108 % of control | dose: 200.0 mg/kg/injection, schedule: Q01DX005 (ip), vehicle: Klucel (hydroxypropylcellulose) (HPC) 100 % of control

CN(C)CC(CN(C)C)C(=O)/C=C/c1ccc2c(c1)OCO2
inactive: dose: 0.78 mg/kg/injection, schedule: Q01DX005 (ip), vehicle: Klucel (hydroxypropylcellulose) (HPC) 112 % of control | dose: 1.56 mg/kg/injection, schedule: Q01DX005 (ip), vehicle: Klucel (hydroxypropylcellulose) (HPC) 104 % of control | dose: 3.12 mg/kg/injection, schedule: Q01DX005 (ip), vehicle: Klucel (hydroxypropylcellulose) (HPC) 104 % of control

C=C=COC
inactive: dose: 60.0 mg/kg/injection, schedule: Q01DX005 (ip), vehicle: saline 93 % of control | dose: 120.0 mg/kg/injection, schedule: Q01DX005 (ip), vehicle: saline 95 % of control | dose: 240.0 mg/kg/injection, schedule: Q01DX005 (ip), vehicle: saline 95 % of control

Clc1ccc2c(N3CCC(CCC4CCN(c5ncnc6cc(Cl)ccc56)CC4)CC3)ncnc2c1
inactive: [1] 96 % of control | [2] 94 % of control | [3] 88 % of control

Cc1cn(C2CC(O)C(CS)O2)c(=O)[nH]c1=O (configuration not stated)
inactive: [1] 104 % of control | [2] 105 % of control | [3] 103 % of control

CCn1c(O)c(N=NC(=S)SCc2ccccc2)c2ccccc21
inactive: dose: 1.56 mg/kg/injection, schedule: Q01DX009 (ip), vehicle: suspension in saline 97 % of control | dose: 3.12 mg/kg/injection, schedule: Q01DX009 (ip), vehicle: suspension in saline 101 % of control | dose: 6.25 mg/kg/injection, schedule: Q01DX009 (ip), vehicle: suspension in saline 87 % of control and 97 % of control | [4] 94 % of control

Cc1ccc(C)c2c1CCC2C (configuration not stated)
inactive: dose: 25.0 mg/kg/injection, schedule: Q01DX009 (ip), vehicle: saline with Tween-80 101 % of control and 110 % of control | dose: 50.0 mg/kg/injection, schedule: Q01DX009 (ip), vehicle: saline with Tween-80 111 % of control and 116 % of control | dose: 100.0 mg/kg/injection, schedule: Q01DX009 (ip), vehicle: saline with Tween-80 104 % of control and 114 % of control

COc1ccc(C(=O)Cc2cc(OC)c(OC)cc2Br)cc1OC
inactive: dose: 100.0 mg/kg/injection, schedule: Q01DX001 (ip), vehicle: Klucel (hydroxypropylcellulose) (HPC) 93 % of control | dose: 200.0 mg/kg/injection, schedule: Q01DX001 (ip), vehicle: Klucel (hydroxypropylcellulose) (HPC) 101 % of control | [3] 86 % of control | dose: 400.0 mg/kg/injection, schedule: Q01DX001 (ip), vehicle: Klucel (hydroxypropylcellulose) (HPC) 99 % of control

CCOc1ccn(C2C=CC(=O)O2)c(=O)n1 (configuration not stated)
inactive: dose: 6.25 mg/kg/injection, schedule: Q01DX005 (ip), vehicle: saline 102 % of control and 105 % of control | dose: 12.5 mg/kg/injection, schedule: Q01DX005 (ip), vehicle: saline 110 % of control and 112 % of control | dose: 25.0 mg/kg/injection, schedule: Q01DX005 (ip), vehicle: saline 111 % of control and 118 % of control | dose: 50.0 mg/kg/injection, schedule: Q01DX005 (ip), vehicle: saline 118 % of control and 120 % of control

O=c1c(F)cn(C(c2ccccc2)c2ccccc2)c(=O)n1C(c1ccccc1)c1ccccc1
inactive: dose: 12.5 mg/kg/injection, schedule: Q01DX009 (ip), vehicle: suspension in saline 101 % of control | dose: 18.75 mg/kg/injection, schedule: Q01DX009 (ip), vehicle: suspension in saline 115 % of control | dose: 25.0 mg/kg/injection, schedule: Q01DX009 (ip), vehicle: suspension in saline 106 % of control | dose: 37.5 mg/kg/injection, schedule: Q01DX009 (ip), vehicle: suspension in saline 97 % of control | [5] 100 % of control | dose: 75.0 mg/kg/injection, schedule: Q01DX009 (ip), vehicle: suspension in saline 101 % of control and 115 % of control | dose: 150.0 mg/kg/injection, schedule: Q01DX009 (ip), vehicle: suspension in saline 97 % of control

COc1cccc2c1C(=O)c1c(O)c3c(c(O)c1C2=O)CC(O)(C1(C)OCC(C)(C)CO1)CC3OC1CC(N)C(O)C(C)O1 (configuration not stated)
inactive: dose: 3.13 mg/kg/injection, schedule: Q04DX003 (ip), vehicle: water 104 % of control | dose: 6.25 mg/kg/injection, schedule: Q04DX003 (ip), vehicle: water 106 % of control | dose: 12.5 mg/kg/injection, schedule: Q04DX003 (ip), vehicle: water 111 % of control | dose: 25.0 mg/kg/injection, schedule: Q04DX003 (ip), vehicle: water 104 % of control | dose: 50.0 mg/kg/injection, schedule: Q04DX003 (ip), vehicle: water 95 % of control

COC(=O)c1ccnc(C(=O)OC)c1
inactive: dose: 50.0 mg/kg/injection, schedule: Q01DX001 (ip), vehicle: saline 86 % of control | dose: 100.0 mg/kg/injection, schedule: Q01DX001 (ip), vehicle: saline 95 % of control | dose: 200.0 mg/kg/injection, schedule: Q01DX001 (ip), vehicle: saline 100 % of control

CC(=O)C1C(=O)C(=O)N(c2ccc(F)cc2)C1=O (configuration not stated)
inactive: dose: 100.0 mg/kg/injection, schedule: Q01DX001 (ip), vehicle: saline with Tween-80 103 % of control | dose: 200.0 mg/kg/injection, schedule: Q01DX001 (ip), vehicle: saline with Tween-80 99 % of control | dose: 400.0 mg/kg/injection, schedule: Q01DX001 (ip), vehicle: saline with Tween-80 98 % of control

O=c1[nH][nH]c(=O)c2c1Nc1c(c(=O)[nH][nH]c1=O)C2c1ccncc1
inactive: [1] 103 % of control | [2] 108 % of control | [3] 96 % of control

CCOC(=O)Cn1/c(=N/N=C(\C)c2ccc([N+](=O)[O-])o2)sc2cc(Cl)ccc21
inactive: [6] 102 % of control | [7] 106 % of control and 96 % of control | [8] 101 % of control and 91 % of control

CSc1nc(N)c(C(=O)NC2CCCCC2)s1
inactive: dose: 50.0 mg/kg/injection, schedule: Q01DX009 (ip), vehicle: Klucel (hydroxypropylcellulose) (HPC) 100 % of control | dose: 100.0 mg/kg/injection, schedule: Q01DX009 (ip), vehicle: Klucel (hydroxypropylcellulose) (HPC) 100 % of control | dose: 200.0 mg/kg/injection, schedule: Q01DX009 (ip), vehicle: Klucel (hydroxypropylcellulose) (HPC) 99 % of control

O=C(O)CNC(=O)CNc1nc(Cl)nc(NCC(=O)NCC(=O)O)n1
inactive: [6] 97 % of control | [7] 96 % of control | [8] 93 % of control

CCOC(=O)OC(C#N)(c1ccc([N+](=O)[O-])cc1)c1nccc2ccccc12 (configuration not stated)
inactive: dose: 12.5 mg/kg/injection, schedule: Q01DX009 (ip), vehicle: saline 93 % of control | [4] 97 % of control | [5] 87 % of control

Cc1cc2nc(C=C(C(F)(F)F)C(F)(F)F)oc2cc1C
inactive: dose: 1.56 mg/kg/injection, schedule: Q01DX009 (ip), vehicle: saline with Tween-80 98 % of control | dose: 3.13 mg/kg/injection, schedule: Q01DX009 (ip), vehicle: saline with Tween-80 98 % of control | dose: 6.25 mg/kg/injection, schedule: Q01DX009 (ip), vehicle: saline with Tween-80 95 % of control | dose: 12.5 mg/kg/injection, schedule: Q01DX009 (ip), vehicle: saline with Tween-80 93 % of control
